According to US9126941B2, “Treatment of hyperproliferative disorders with diarylhydantoin compounds” (The Regents of the University of California, priority 2005, dated 2015):
Entries after “also recorded” stand apart in the source; their conditions may differ.

Key:
[1] = target: T1, AR (Homo sapiens, UniProt P10275); assay: cell-based; assay type: cell-based
Protocol: The compounds were subjected to tests using an artificial AR response reporter system in a hormone refractory prostate cancer cell line. […] After two days of incubation, reporter activities were assayed.

[2] = test system: L1AR cell line; assay: Luciferase activity of the L1AR cell line; assay type: cell-based; details: at a given concentration, 125 nmol to 1000 nmol
[3] = test system: DU-145 cells; assay: MTS growth assay, DU-145 cells; assay type: cell-based; details: prostate cancer cell line lacking AR expression
[4] = test system: MCF7; assay: Growth effect on MCF7 cells; assay type: cell-based; details: breast cancer cells
[5] = test system: SkBr3; assay: Growth effect on SkBr3 cells; assay type: cell-based; details: breast cancer cells
[6] = test system: 3T3; assay: Growth effect on 3T3 fibroblasts; assay type: cell-based; details: normal mouse fibroblast cell line
[7] = test system: LNCaP cells; assay: MTS growth assay, hormone sensitive LNCaP cells; assay type: cell-based
Protocol: FIG. 10. Inhibitory effect on growth of hormone sensitive prostate cancer cells. […] After 4 days of incubation, cell growth was measured by MTS assay.

[8] = test system: AR-overexpressed LNCaP xenograft tumors; assay: AR-overexpressed LNCaP xenograft model in castrated male SCID mice, oral once daily; assay type: in vivo; details: 1 mg per kg orally once daily, 44 days
Protocol: FIG. 7. […] Mice with established LN-AR xenograft tumors were randomized and treated with indicated compounds orally once daily. Tumor size was measured by caliber.
FIG. 8. […] The tumors were taken out from the mice after 44 days of treatment, tumor lysate was extracted, and PSA level in tissue lysate was determined by ELISA.
First we examined this compound on xenograft tumors established from AR-overexpressed LNCaP cells. The engineered cells in Matrigel (Collaborative Biomedical) were injected subcutaneously into the flanks of the castrated male SCID mice. Tumor size was measured weekly in three dimensions using calipers. After xenograft tumors established (tumor size reached at least 40 mm^3), mice with tumors were randomized and treated with different doses of compounds orally once daily.

[9] = test system: hormone refractory LAPC4 xenograft; assay: Hormone refractory LAPC4 xenograft model; assay type: in vivo, mice; details: 1 mg per kg orally once daily, 17 days
Protocol: FIG. 9. […] (A), tumor size was measured by caliber. (B), the tumors were taken out from the mice after 17 days of treatment, tumor lysate was extracted, and PSA level in tissue lysate was determined by ELISA.
This model was established from passaging of hormone sensitive prostate cancer in castrated mice, which mimics the clinical progression of prostate cancer (2).

[10] = test system: LNCaP-AR xenograft tumors; assay: LNCaP-AR xenograft in SCID mice, tumor size and luciferase imaging (RD162); assay type: in vivo; details: for Tumor growth / tumor volume over time (FIG. 11): 10 or 50 mg/kg orally every day, 18 days; for Photon emission associated with luciferase activity (FIG. 12): day 18, 3 hours after last dose
Protocol: FIG. 11 is a graph of tumor size. AR overexpressing LNCaP cells were injected in the flanks of castrated […] mice, subcutaneously. When tumors reached about 100 cubic mm, they were randomized into five groups. Each group had nine animals. […] The tumors were measured three-dimensionally, width, length and depth, using a caliper.
FIG. 12 depicts experimental results of tumor size. At day 18, the animals were imaged via an optical CCD camera, 3 hours after last dose of treatment. A ROI was drawn over the tumor for luciferase activity measurement in photon/second. The right panels is a representation of the ROIs measurements.
(A) The relative tumor volume as a function of time shown for each set of mice. (B) Images of each set of mice with photon emission associated with luciferase activity at day 31 shown as color contours. (C) Rate of photon emission associated with luciferase activity shown at several times for each set of mice.
All animal experiments were performed in compliance with the guidelines of the Animal Research Committee of the University of California at Los Angeles. Animals were bought from Taconic and maintained in a laminar flow tower in a defined flora colony. LNCaP-AR and LNCaP-vector cells were maintained in RPMI medium supplemented with 10% FBS. 10^6 cells in 100 μl of 1:1 Matrigel to RPMI medium were injected subcutaneously into the flanks of intact or castrated male SCID mice. Tumor size was measured weekly in three dimensions (length×width×depth) using calipers. Mice were randomized to treatment groups when tumor size reached approximately 100 mm^3. Drugs were given orally every day at 10 mg/kg and 50 mg/kg. To obtain pharmacodynamic readout, the animals were imaged via an optical CCD camera, 3 hours after last dose of the treatment. A ROI is drawn over the tumor for luciferase activity measurement in photon/second. The right panels were a representation of the ROIs measurements.

[11] = test system: castrated luciferase transgenic mice; assay: Castrated luciferase transgenic mice with implanted testosterone pellet, urogenital tract weight and photon emission; assay type: in vivo; details: 10 mg per kg per day, 14 days
Source text: FIG. 23 presents results of an experiment conducted with wild type nontransgenic mice (WT), castrated luciferase transgenic mice (Cast), and non-castrated luciferase transgenic mice (Intact). […] (A) Urogenital tract weight at 14 days. (B) Photon emission rate at 14 days.

[12] = target: T1, AR; assay: cell-based; assay type: cell-based; details: for PSA levels of LN-AR cells (FIG. 14): various doses
Protocol: It is well established that PSA levels are indicators of AR activities in prostate cancer. […] The LNCaP-AR cells are a line of lymph node carcinoma of prostate cells transduced with a plasmid that makes express androgen receptors. […] After four days incubation, secreted PSA levels were assayed using PSA ELISA kits (American Qualex, San Clemente, Calif.)

[13] = Pharmacokinetics in FVB mice, drug concentration by HPLC; details: for Css, 10 mg/kg [μM] / Css, 25 mg/kg [μM] / Css, 50 mg/kg [μM]: steady-state concentration in mice plasma
Protocol: Mice were divided into groups of three for each time points. Two mice were not treated with drug and two other mice were treated with vehicle solution. […]
The drug was dissolved in a mixture 1:5:14 of DMSO:PEG400:H20. (Vehicle solution) and was administered into mice through the tail vein. The animals are warmed under a heat lamp for approximately 20 minutes prior to treatment to dilate their tail vein. […] After drug administration, the animals were euthanized via CO2 inhalation at different timepoints: […], […], 2 h, 6 h, 16 h. Animals were immediately bleed after exposure to CO2 via cardiac puncture (1 ml BD syringe+27 G ⅝ needle).
The samples for HPLC analysis were prepared according to the following procedure: • Blood cells were separated from serum by centrifugation. • To 400 μl of serum were added 80 μl of a 10 μM solution of an internal standard and 520 μl of acetonitrile. Precipitation occurred. • The mixture was vortexed for 3 minutes and then placed under ultrasound for 30 minutes. • The solid particles were filtered off or were separated by centrifugation. • The filtrate was dried under an argon flow to dryness.

[14] = Ranking of compounds in tiers for utility in treating prostate cancer; details: assay not specified
Source text: The placement of compounds into tiers was based on available data coupled with analytical judgment. Data considered included in vitro assays (AR response reporter system in LNCaP cell line, PSA level measurement, MTS mitochondrial assay) and in vivo experiments (tumor size measured directly or by emission induced by luciferase reporter gene, pharmacokinetic assays based on blood plasma levels). Not every compound was subjected to each assay. […] Judgment was applied in ranking compounds relative to each other for their utility in treating prostate cancer, in particular when ranking two compounds for which the same experiments were not performed. Characteristics considered in establishing the ranking include AR antagonism activity, lack of AR agonism in hormone refractory cells, prevention of tumor growth, tumor shrinkage, and pharmacokinetic behavior, with a longer residence time in blood being advantageous.

[15] = 10 mg per kg per day, LN-AR (HR) in SCID mice

T1 sequence (P10275 whole entry, looked up): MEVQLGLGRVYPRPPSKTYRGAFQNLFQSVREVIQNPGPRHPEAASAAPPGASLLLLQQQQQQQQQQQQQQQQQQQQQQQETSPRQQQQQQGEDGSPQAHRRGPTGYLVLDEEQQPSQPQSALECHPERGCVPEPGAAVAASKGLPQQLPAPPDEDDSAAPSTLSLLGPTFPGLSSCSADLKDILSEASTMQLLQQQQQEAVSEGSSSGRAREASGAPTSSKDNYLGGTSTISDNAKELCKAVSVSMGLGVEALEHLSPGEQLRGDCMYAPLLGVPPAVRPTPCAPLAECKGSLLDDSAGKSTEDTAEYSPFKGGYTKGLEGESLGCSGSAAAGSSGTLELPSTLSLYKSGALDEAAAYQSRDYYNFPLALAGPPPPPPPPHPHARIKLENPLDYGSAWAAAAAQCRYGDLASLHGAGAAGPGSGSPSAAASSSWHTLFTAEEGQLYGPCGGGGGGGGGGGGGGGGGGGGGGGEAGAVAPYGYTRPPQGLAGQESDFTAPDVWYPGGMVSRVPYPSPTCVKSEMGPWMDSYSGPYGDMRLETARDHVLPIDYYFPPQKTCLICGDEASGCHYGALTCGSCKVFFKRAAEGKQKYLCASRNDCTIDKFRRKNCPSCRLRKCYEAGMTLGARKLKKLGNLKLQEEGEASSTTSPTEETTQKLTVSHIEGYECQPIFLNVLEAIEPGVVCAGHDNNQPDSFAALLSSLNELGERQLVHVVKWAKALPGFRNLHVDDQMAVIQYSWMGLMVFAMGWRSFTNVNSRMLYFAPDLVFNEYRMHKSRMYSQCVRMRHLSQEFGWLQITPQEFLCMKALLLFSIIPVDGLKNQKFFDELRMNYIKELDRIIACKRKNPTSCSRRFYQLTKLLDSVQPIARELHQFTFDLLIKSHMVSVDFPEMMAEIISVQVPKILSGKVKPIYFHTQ

In the case of `CNC(=O)c1ccc(N2C(=S)N(c3ccc(C#N)c(C(F)(F)F)c3)C(=O)C23CCC3)cc1` [RD161, N-methyl-4-[7-(4-cyano-3-trifluoromethylphenyl)-8-oxo-6-thioxo-5,7-diazaspiro[3.4]oct-5-yl]benzamide], the “Luciferase activity in LNCaP-AR cells (FIG. 3)” value [1] is reported as “acted to reduce luciferase activity”, the “Rank order, most active to least active, relative luciferase activity (FIG. 3)” value ([1]; 500 nM) is reported as “RD152>RD153>RD145>RD163>RD161=RD162>bicalutamide” and the “Luciferase activity, L1AR cell line (FIG. 24)” value [2] is reported as “less than the luciferase activity upon exposure to RD149”.
In the case of `Cc1ccc(N2C(=S)N(c3ccc(C#N)c(C(F)(F)F)c3)C(=O)C2(C)C)cc1` [RD7, 4-[3-(4-methylphenyl)-4,4-dimethyl-5-oxo-2-thioxoimidazolidin-1-yl]-2-trifluoromethyl-benzonitrile], the “Growth inhibitory effect on DU-145 cells” value [3] is reported as “no growth inhibitory effect”, the “Growth effect on MCF7” value [4] is reported as “no growth effect” and the “Growth effect on SkBr3” value [5] is reported as “no growth effect”. For the same compound, the “Growth effect on 3T3” value [6] was “no growth effect” and the “Potency relative to bicalutamide on hormone sensitive prostate cancer cells” value ([7]; FIG. 10, MTS) was 10 fold.
With `CC(O)(CS(=O)(=O)c1ccc(F)cc1)C(=O)Nc1ccc(C#N)c(C(F)(F)F)c1` (stereo not shown) [Bicalutamide, N-[4-cyano-3-(trifluoromethyl)phenyl]-3-[(4-fluorophenyl)sulfonyl]-2-hydroxy-2-methylpropanamide, reference compound] the “Inhibition of hormone sensitive LNCaP cell growth (MTS)” value ([7]; dose-dependent) was “mildly inhibited”, the “Growth of LNCaP-AR xenograft tumors (FIG. 7a)” value [8] was “did not inhibit growth” and the “Growth of hormone refractory LAPC4 xenograft (FIG. 9a)” value [9] was “did not inhibit”. The “PSA expression in hormone refractory LAPC4 xenograft (FIG. 9b)” value [9] was “did not inhibit”, the “Tumor growth / tumor volume over time (FIG. 11)” value [10] was “tumors continued to grow” and the “Photon emission associated with luciferase activity (FIG. 12)” value [10] was “remained about the same or increased”. For the same compound, the “Photon emission associated with luciferase activity (FIG. 23)” value [11] was “decrease” and the “Urogenital tract weight (FIG. 23)” value [11] was “decrease”.
For `CNC(=O)c1ccc(N2C(=S)N(c3ccc(C#N)c(C(F)(F)F)c3)C(=O)C23CCC3)cc1F` [RD162, N-methyl-4-[7-(4-cyano-3-trifluoromethylphenyl)-8-oxo-6-thioxo-5,7-diaza-spiro[3.4]oct-5-yl]-2-fluorobenzamide], the “Luciferase activity in LNCaP-AR cells (FIG. 3)” value [1] was “acted to reduce luciferase activity”, the “PSA levels of LN-AR cells (FIG. 21)” value ([12]; doses of 100, 200, 500 and 1000 nM) was “decreased” and the “PSA levels of LN-AR cells (FIG. 14)” value [12] was “PSA levels decreased”. The “Tumor volume, 1 mg per kg body weight per day (FIG. 18)” value ([10]; 1 mg per kg per day) was “the rate of tumor increase decreased”, the “Tumor volume, 10 mg per kg body weight per day (FIG. 18)” value ([10]; 10 mg per kg per day) was “tumor size decreased with time” and the “Photon emission associated with luciferase activity (FIG. 20)” value [10, 15] was “decrease in photon emission”. The “Tumor size (FIG. 20)” value [10, 15] was “decrease or stabilization of tumor size”, the “Photon emission associated with luciferase activity (FIG. 19)” value ([10]; 10 mg per kg per day, day 17 relative to day 0) was “decreased” and the “Tumor growth / tumor volume over time (FIG. 11)” value [10] was “effective to prevent tumor growth and even to cause tumor shrinkage; also recorded: tumors decreased in size”. The “Photon emission associated with luciferase activity (FIG. 12)” value [10] was “decreased”, the “Css, 10 mg/kg [μM]” value [13] was 9.9 µM and the “Css, 25 mg/kg [μM]” value [13] was 10.7 µM. The “Css, 50 mg/kg [μM]” value [13] was 10.2 µM, the “Photon emission associated with luciferase activity (FIG. 23)” value [11] was “decrease” and the “Urogenital tract weight (FIG. 23)” value [11] was “decrease”. The “Luciferase activity, L1AR cell line (FIG. 24)” value [2] was “less than the luciferase activity upon exposure to RD149”.
With `CNC(=O)CCCc1ccc(N2C(=S)N(c3ccc(C#N)c(C(F)(F)F)c3)C(=O)C23CCC3)cc1` [RD131, 4-{4-[7-(4-Cyano-3-trifluoromethylphenyl)-8-oxo-6-thioxo-5,7-diaza-spiro[3.4]oct-5-yl]phenyl}-N-methyl-butyramide] the IC50 [1] was 92 nM, the “IC50 compared with bicalutamide (FIG. 15)” value ([1]; assay not specified) was “much lower than the IC50 for bicalutamide” and the “Rank order, most active to least active, relative PSA level (FIG. 4)” value ([12]; 500 nM) was “RD138>RD131>RD37>RD133>RD134>RD137>RD138>RD135>bicalutamide”. The “Decrease in PSA level of LNCaP-AR cells, comparison (FIG. 4)” value ([12]; at concentrations of 1000 nM) was “greater decrease in PSA level of LNCaP-AR cells than RD133, RD134, and RD138”, the “PSA level, LN/AR cell line, comparison” value ([12]; for a given dose / concentration) was “less than the PSA level upon exposure to RD128 and RD129” and the “PSA levels of LN-AR cells (FIG. 14)” value [12] was “PSA levels decreased”. For the same compound, the “Pharmacokinetic behavior, residence time in blood” value ([13]; mice) was “metabolize fast”, the “Css, 10 mg/kg [μM]” value [13] was 0.39 µM and the “Css, 25 mg/kg [μM]” value [13] was 0.43 µM. The “Css, 50 mg/kg [μM]” value [13] was 0.40 µM and the “Activity (words, overall)” value [14] was “particularly advantageous”.
